Measured values: PMC10764104, “Discovery of Molecular Glue Degraders via Isogenic Morphological Profiling” (ACS Chemical Biology, 2023)
One block for each molecule: values may come before it.

Biological target: T1, recombinant DDB1-CRBN (Homo sapiens, UniProt Q96SW2)
T1 construct: His; made in house; host or cells: High Five insect cells (baculovirus made and propagated in SF9 cells)
Assay: Fluorescence polarization-based competition assay for CRBN binding
Settings: 200 nM CRBN-DDB1, 20 nM pomalidomide-fluorescein tracer 16, triplicates; read-out: FP_CRBN_binding: CRBN binding affinity, EC50
Protocol: Prior to screening the compound library in the isogenic CPA, we assessed their CRBN binding affinities using a fluorescence-polarization-based competition assay with recombinant DDB1-CRBN and the fluorescent tracer 16 (Figure S2). […] We also assessed the cytotoxicity of the CRBN binders in RKO wild-type (WT) cells to determine the appropriate treatment concentration. […]
Fluorescence Polarization‐based competition assay
Fluorescence Polarization assays were performed in 384‐well, Low Volume, Black, Round Bottom, Polystyrene Nonbinding surface Microplates (Corning, #4514). The test compounds were incubated with 200 nM CRBN‐DDB1 and 20 nM Pomalidomide‐fluorescein tracer 16 in 50 mM Tris‐HCl pH 7.5, 200 mM NaCl, 1 mM DTT, 0.02% Triton X‐ 100, and 0.1 µg/µL Bovine Serum Albumin (Sigma Aldrich, #A7030) in a total volume of 25 µL. Fluorescence polarization values were determined with a PerkinElmer Envision reader with FITC FP dual mirror and FITC FP 480 excitation filter and FITC FP 535 emission filters. Fluorescence polarization values of a 10x serial dilution (10 nM to 100 µM) of the test compounds were determined in triplicates. EC50 values were calculated with GraphPad Prism software (version 10.0.2) with a non‐linear fit function (4PL sigmoidal curve fit) adjusting the bottom constrain to the FP value of free tracer. […]

Structure (SMILES): C[C@@H]1C[C@H](C)CN(S(=O)(=O)Oc2cccc(Nc3ccc4c(c3)C(=O)N(C3CCC(=O)NC3=O)C4=O)c2)C1 (stereo partly drawn) [FL1-6]
- EC50: 3030 nM

Structure (SMILES): CC1(C)CN(S(=O)(=O)Oc2cccc(Nc3ccc4c(c3)C(=O)N(C3CCC(=O)NC3=O)C4=O)c2)CC2(CCOC2)O1 (stereo not drawn) [FL1-8]
- EC50: 930 nM

Structure (SMILES): CN(Cc1ccc2[nH]nnc2c1)S(=O)(=O)Oc1cccc(Nc2ccc3c(c2)C(=O)N(C2CCC(=O)NC2=O)C3=O)c1 (stereo not drawn) [FL1-15]
- EC50: 1170 nM

Structure (SMILES): CC1c2cc(F)ccc2CCN1S(=O)(=O)Oc1cccc(Nc2ccc3c(c2)C(=O)N(C2CCC(=O)NC2=O)C3=O)c1 (stereo not drawn) [FL1-17]
- EC50: 1840 nM

Structure (SMILES): CC1c2cccn2CCN1S(=O)(=O)Oc1cccc(Nc2ccc3c(c2)C(=O)N(C2CCC(=O)NC2=O)C3=O)c1 (stereo not drawn) [FL1-19]
- EC50: 898 nM

Structure (SMILES): CN(Cc1ccc2c(c1)OCO2)S(=O)(=O)Oc1cccc(Nc2ccc3c(c2)C(=O)N(C2CCC(=O)NC2=O)C3=O)c1 (stereo not drawn) [FL1-20]
- EC50: 1470 nM

Structure (SMILES): CN(C1CC1)S(=O)(=O)Oc1cccc(Nc2ccc3c(c2)C(=O)N(C2CCC(=O)NC2=O)C3=O)c1 (stereo not drawn) [FL1-21]
- EC50: 1050 nM

Structure (SMILES): CC(C)(O)C1CCN(S(=O)(=O)Oc2ccc(Nc3ccc4c(c3)C(=O)N(C3CCC(=O)NC3=O)C4=O)cc2)C1 (stereo not drawn) [FL2-4]
- EC50: 770 nM

Structure (SMILES): C[C@@H]1C[C@H](C)CN(S(=O)(=O)Oc2ccc(Nc3ccc4c(c3)C(=O)N(C3CCC(=O)NC3=O)C4=O)cc2)C1 (stereo partly drawn) [FL2-6]
- EC50: 4220 nM

Structure (SMILES): CC1(C)CN(S(=O)(=O)Oc2ccc(Nc3ccc4c(c3)C(=O)N(C3CCC(=O)NC3=O)C4=O)cc2)CCS1(=O)=O (stereo not drawn) [FL2-7]
- EC50: 731 nM

Structure (SMILES): CC1(C)CN(S(=O)(=O)Oc2ccc(Nc3ccc4c(c3)C(=O)N(C3CCC(=O)NC3=O)C4=O)cc2)CC2(CCOC2)O1 (stereo not drawn) [FL2-8]
- EC50: 2590 nM

Structure (SMILES): O=C1CCC(N2C(=O)c3ccc(Nc4ccc(OS(=O)(=O)N5C[C@@H](F)[C@H](F)C5)cc4)cc3C2=O)C(=O)N1 (stereo partly drawn) [FL2-10]
- EC50: 1270 nM

Structure (SMILES): O=C1CCC(N2C(=O)c3ccc(Nc4ccc(OS(=O)(=O)N5CCC(c6ccco6)C5)cc4)cc3C2=O)C(=O)N1 (stereo not drawn) [FL2-12]
- EC50: 4780 nM

Structure (SMILES): CN(Cc1ccc2[nH]nnc2c1)S(=O)(=O)Oc1ccc(Nc2ccc3c(c2)C(=O)N(C2CCC(=O)NC2=O)C3=O)cc1 (stereo not drawn) [FL2-15]
- EC50: 1650 nM

Structure (SMILES): O=C1CCC(N2C(=O)c3ccc(Nc4ccc(OS(=O)(=O)N5CCC(c6ccncc6)CC5)cc4)cc3C2=O)C(=O)N1 (stereo not drawn) [FL2-16]
- EC50: 1970 nM

Molecules with a lower EC50, results first:

- EC50: 682 nM
Structure (SMILES): O=C1CCC(N2C(=O)c3ccc(Nc4cccc(OS(=O)(=O)N5CCC(c6ccncc6)CC5)c4)cc3C2=O)C(=O)N1 (stereo not drawn) [FL1-16]

- EC50: 675 nM
Structure (SMILES): O=C1CCC(N2C(=O)c3ccc(Nc4ccc(OS(=O)(=O)N5CC(CCO)C5)cc4)cc3C2=O)C(=O)N1 (stereo not drawn) [FL2-2]

- EC50: 617 nM
Structure (SMILES): CN(Cc1ncnn1C)S(=O)(=O)Oc1ccc(Nc2ccc3c(c2)C(=O)N(C2CCC(=O)NC2=O)C3=O)cc1 (stereo not drawn) [FL2-11]

- EC50: 607 nM
Structure (SMILES): O=C1CCC(N2C(=O)c3ccc(Nc4cccc(OS(=O)(=O)N5C[C@@H](F)[C@H](F)C5)c4)cc3C2=O)C(=O)N1 (stereo partly drawn) [FL1-10]

- EC50: 526 nM
Structure (SMILES): Cc1cn2c(n1)CN(S(=O)(=O)Oc1ccc(Nc3ccc4c(c3)C(=O)N(C3CCC(=O)NC3=O)C4=O)cc1)CC2 (stereo not drawn) [FL2-13]

- EC50: 522 nM
Structure (SMILES): CC1(C)CN(S(=O)(=O)Oc2cccc(Nc3ccc4c(c3)C(=O)N(C3CCC(=O)NC3=O)C4=O)c2)CCS1(=O)=O (stereo not drawn) [FL1-7]

- EC50: 509 nM
Structure (SMILES): CN(Cc1ncnn1C)S(=O)(=O)Oc1cccc(Nc2ccc3c(c2)C(=O)N(C2CCC(=O)NC2=O)C3=O)c1 (stereo not drawn) [FL1-11]

- EC50: 482 nM
Structure (SMILES): Cc1cn2c(n1)CN(S(=O)(=O)Oc1cccc(Nc3ccc4c(c3)C(=O)N(C3CCC(=O)NC3=O)C4=O)c1)CC2 (stereo not drawn) [FL1-13]

- EC50: 481 nM
Structure (SMILES): CC(C)(O)C1CCN(S(=O)(=O)Oc2cccc(Nc3ccc4c(c3)C(=O)N(C3CCC(=O)NC3=O)C4=O)c2)C1 (stereo not drawn) [FL1-4]

- EC50: 458 nM
Structure (SMILES): O=C1CCC(N2C(=O)c3ccc(Nc4ccc(OS(=O)(=O)N5CCOCC5)cc4)cc3C2=O)C(=O)N1 (stereo not drawn) [FL2-5]

- EC50: 445 nM
Structure (SMILES): C[C@@H](O)CN(C)S(=O)(=O)Oc1ccc(Nc2ccc3c(c2)C(=O)N(C2CCC(=O)NC2=O)C3=O)cc1 (stereo partly drawn) [FL2-1]

- EC50: 435 nM
Structure (SMILES): O=C1CCC(N2C(=O)c3ccc(Nc4cccc(OS(=O)(=O)N5CC6(CNC(=O)N6)C5)c4)cc3C2=O)C(=O)N1 (stereo not drawn) [FL1-9]

- EC50: 414 nM
Structure (SMILES): O=C1CCC(N2C(=O)c3ccc(Nc4ccc(OS(=O)(=O)N5CC6(CNC(=O)N6)C5)cc4)cc3C2=O)C(=O)N1 (stereo not drawn) [FL2-9]

- EC50: 321 nM
Structure (SMILES): C[C@@H](O)CN(C)S(=O)(=O)Oc1cccc(Nc2ccc3c(c2)C(=O)N(C2CCC(=O)NC2=O)C3=O)c1 (stereo partly drawn) [FL1-1]

- EC50: 301 nM
Structure (SMILES): O=C1CCC(N2C(=O)c3ccc(Nc4cccc(OS(=O)(=O)N5CCOCC5)c4)cc3C2=O)C(=O)N1 (stereo not drawn) [FL1-5]
